Experimental findings from EP3502102A1, “STING INHIBITORS” (ECOLE POLYTECHNIQUE FEDERALE DE LAUSANNE (EPFL), priority 2017, dated 2019) are described below.

For one series, the target named is T1, TBK1 (Homo sapiens, UniProt Q9UHD2).
T1 construct: expressed in transfected cells; host or cells: HEK293T
T1 sequence (Q9UHD2 1-729): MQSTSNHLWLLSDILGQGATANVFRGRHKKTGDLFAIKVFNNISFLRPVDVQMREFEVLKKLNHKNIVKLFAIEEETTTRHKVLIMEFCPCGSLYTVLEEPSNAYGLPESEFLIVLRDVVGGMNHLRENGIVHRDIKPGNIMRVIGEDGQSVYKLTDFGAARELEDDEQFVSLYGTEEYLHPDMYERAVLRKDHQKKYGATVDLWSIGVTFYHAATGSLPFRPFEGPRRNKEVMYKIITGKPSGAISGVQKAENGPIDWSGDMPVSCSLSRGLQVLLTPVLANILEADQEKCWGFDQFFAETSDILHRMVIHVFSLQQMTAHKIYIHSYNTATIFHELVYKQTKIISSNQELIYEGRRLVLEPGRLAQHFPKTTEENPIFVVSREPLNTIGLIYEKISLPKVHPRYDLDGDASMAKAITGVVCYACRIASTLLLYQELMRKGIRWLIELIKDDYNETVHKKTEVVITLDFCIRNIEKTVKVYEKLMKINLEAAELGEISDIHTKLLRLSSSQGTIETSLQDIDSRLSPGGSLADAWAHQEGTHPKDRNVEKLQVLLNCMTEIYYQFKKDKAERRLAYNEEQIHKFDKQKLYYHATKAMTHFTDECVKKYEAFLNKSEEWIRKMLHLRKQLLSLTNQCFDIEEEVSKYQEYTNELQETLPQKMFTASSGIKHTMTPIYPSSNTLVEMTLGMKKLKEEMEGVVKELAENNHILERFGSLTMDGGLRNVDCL
The series can be described thus: IFN-beta luciferase reporter in HEK293T cells transfected with TBK1. The format is cell-based. Particulars: 0.01-5µM.

The next series concerns the target T2, STING (Mus musculus, UniProt Q3TBT3).
T2 sequence (Q3TBT3 1-378): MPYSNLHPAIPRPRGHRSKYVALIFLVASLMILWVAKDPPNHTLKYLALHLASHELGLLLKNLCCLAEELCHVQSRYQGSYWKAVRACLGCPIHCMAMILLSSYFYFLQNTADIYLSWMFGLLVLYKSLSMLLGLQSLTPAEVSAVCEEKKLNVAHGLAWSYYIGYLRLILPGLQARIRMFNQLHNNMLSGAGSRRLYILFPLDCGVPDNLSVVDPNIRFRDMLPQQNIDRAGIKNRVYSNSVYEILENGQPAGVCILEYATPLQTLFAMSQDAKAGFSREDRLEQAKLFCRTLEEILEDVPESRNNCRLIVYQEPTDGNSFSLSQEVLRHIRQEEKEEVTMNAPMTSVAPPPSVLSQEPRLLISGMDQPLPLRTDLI
The series can be described thus: CMA-induced serum cytokines in mice. Format: in vivo, C57BL/6 mice. More on the design: tissue Jackson Laboratories 000664; host or cells: whole animal, C57BL/6J mice. As to conditions: pre-treated 1 h or 4 h before i.p. CMA; serum 4 h later.

On to `O=C(Nc1ccc(I)cc1)c1ccc([N+](=O)[O-])o1` [C-176, N-(4-iodophenyl)-5-nitro-2-furamide], for which the “TBK1-driven IFN induction” value on TBK1 is reported as “neither RIG-I nor TBK1-driven IFN induction was affected”. Further, the “serum concentration of type I IFNs” value in the series on Trex1 KO mice (TREX1 KO mice, compared to vehicle, 11 days) is “significant decrease”. Besides, the “histological analysis of the heart” value with Trex1 KO mice (TREX1 KO mice, 11 days) was “decreased cellularity”. Also, the “overt toxicity (weight changes)” value in the series on Trex1 KO mice (mouse, in vivo) was “no signs of overt toxicity”. For the same molecule, on STING, the “increase in serum concentration of IL-6” value is listed as “completely abrogated” and the “increase in serum concentration of type I IFNs” value is recorded as “completely abrogated”.
